Test results: patent EP4782453A1 (Beyang Therapeutics Co., Ltd., priority 2023, dated 2025)

Target: T1, Menin-MLL (Homo sapiens, UniProt O00255)
T1 construct: His-Menin (M1-L615 end); purchased BIORTUS BP9210
T1 sequence (O00255 1-615 isoform O00255-1): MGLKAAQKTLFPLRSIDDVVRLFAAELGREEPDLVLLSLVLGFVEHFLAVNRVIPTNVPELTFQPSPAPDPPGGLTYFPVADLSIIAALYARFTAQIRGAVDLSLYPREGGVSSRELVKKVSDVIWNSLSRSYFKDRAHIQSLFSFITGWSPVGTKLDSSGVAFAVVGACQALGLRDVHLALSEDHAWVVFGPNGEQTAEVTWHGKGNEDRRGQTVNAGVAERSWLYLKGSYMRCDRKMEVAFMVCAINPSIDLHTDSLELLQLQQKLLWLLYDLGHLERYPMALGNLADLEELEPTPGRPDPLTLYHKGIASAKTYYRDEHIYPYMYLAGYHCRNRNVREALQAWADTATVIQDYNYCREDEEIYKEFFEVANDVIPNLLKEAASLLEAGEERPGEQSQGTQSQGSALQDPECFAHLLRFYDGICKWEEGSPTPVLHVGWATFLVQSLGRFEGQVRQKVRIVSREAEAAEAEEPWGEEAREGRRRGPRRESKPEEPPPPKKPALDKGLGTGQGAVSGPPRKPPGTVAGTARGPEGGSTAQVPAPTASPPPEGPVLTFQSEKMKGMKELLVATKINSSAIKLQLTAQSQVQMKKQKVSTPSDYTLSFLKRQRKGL
Assay: Inhibitory activity against Menin-MLL binding (fluorescence polarization)
Settings: Menin-MLL IC50, fluorescence polarization; 150 nM His-Menin, 15 nM FITC-MLL; 25°C for 60 min
Method in brief: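 Fluorescence polarization competition: compound and 150 nM His-tagged menin (residues M1-L615) sit 15 min at 25 °C in pH 7.5 HEPES buffer with NaCl, DTT and BSA; 15 nM FITC-labelled MLL peptide then binds for 60 min. IC50 fitted sigmoidally from mP values, duplicate wells.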

| SMILES | IC50 [nM] |
| --- | --- |
| CCN(C(=O)c1cc(F)ccc1-c1cc(C2CN(C(=O)C3NC4CCC3CC4)C2)cn2c(C)nc(Cl)c12)C(C)C [Example 108, 2-(1-chloro-3-methyl-6-{1-[(1R,3S,4S)-2-azabicyclo[2.2.2]octan-3-carbonyl]azacyclobutan-3-yl}imidazo[1,5-a]pyridin-8-yl)-N-ethyl-5-fluoro-N-(isopropyl)benzamide] | 7.2 |
| CCN(C(=O)c1cc(F)ccc1-c1cc([C@@H]2CCN(C[C@H]3CC[C@H](NS(=O)(=O)CC)CC3)C2)nc2c1cnn2C)C(C)C [Example 11-1] | 744 |
| CCS(=O)(=O)N[C@H]1CC[C@H](CN2CCCC(c3cc(-c4ccc(F)cc4C(=O)N(CC(F)F)C(C)C)c4cnn(C)c4c3)C2)CC1 (stereo partly shown) [Example 170, N-(2,2-difluoroethyl)-5-fluoro-2-[1-methyl-6-(1-{[(1r,4r)-4-ethanesulfonamidocyclohexyl]methyl}piperidin-3-yl)-1H-indazol-4-yl]-N-(isopropyl)benzamide] | 60 |
| CCN(C(=O)c1cc(F)ccc1-c1cc(C2CCN(C[C@H]3CC[C@@H](NS(=O)(=O)CC)CC3)C2)cc2cncn12)C(C)C (mixture of isomers) [Example 26, N-ethyl-5-fluoro-N-isopropyl-2-[7-(1-{[(1s,4s)-4-ethanesulfonamidocyclohexyl]methyl}pyrrolidin-3-yl)imidazo[1,5-a]pyridin-5-yl]benzamide] | 44.5 |
| CCN(C(=O)c1cc(F)ccc1-c1cc(C2CCN(C[C@H]3CC[C@H](NS(=O)(=O)CC)CC3)C2)cc2cnc(C)n12)C(C)C (mixture of isomers) [Example 35, N-ethyl-5-fluoro-2-[3-methyl-7-(1-{[(1r,4r)-4-ethanesulfonamidocyclohexyl]methyl}pyrrolidin-3-yl)imidazo[1,5-a]pyridin-5-yl]-N-(isopropyl)benzamide] | 39.5 |
| CCS(=O)(=O)N[C@H]1CC[C@H](CC(C)N2CC(c3cc(-c4ccc(F)cc4C(=O)N4CCOC[C@H]4C)c4cnn(C)c4c3)C2)CC1 (stereo partly drawn) [Example 175, N-[(1r,4r)-4-{2-[3-(4-{4-fluoro-2-[(3R)-3-methylmorpholin-4-carbonyl]phenyl}-1-methyl-1H-indazol-6-yl)azacyclobutan-1-yl]propyl}cyclohexyl]ethan-1-sulfonamide] | 138 |
| CCN(C(=O)c1cc(F)ccc1-c1cc(C2CN(C(=O)[C@@H]3CCCN3)C2)cn2c(C)nc(Cl)c12)C(C)C [Example 125] | 26.5 |

Same assay, conditions: fluorescence polarization; 150 nM His-Menin, 15 nM FITC-MLL; 25°C for 60 min; read-out: Menin-MLL IC50

| IC50 [nM] | SMILES |
| --- | --- |
| 19.5 | CCN(C(=O)c1cc(F)ccc1-c1cc(C2CN([C@H](CN3CCN(C(C)=O)CC3)C(C)C)C2)cn2c(C)ncc12)C(C)C [Example 443] |
| 11.8 | CCN(C(=O)c1cc(F)ccc1-c1cc(C2CN(C(COC)C(C)C)C2)cn2c(C)ncc12)C(C)C (stereo not shown) [Example 414, N-ethyl-5-fluoro-2-{6-[1-(1-methoxy-3-methylbutan-2-yl)azacyclobutan-3-yl]-3-methylimidazo[1,5-a]pyridin-8-yl}-N-(isopropyl)benzamide] |
| 24 | CCN(C(=O)c1cc(F)ccc1-c1cc(N2CCN(C(=O)[C@@H]3CC4CCCCC4N3)CC2)cn2c(C)nc(Cl)c12)C(C)C (stereo partly shown) [Example 112] |
| 70.5 | CCN(C(=O)c1cc(F)ccc1-c1cc(C2CCN(C[C@H]3C[C@H](NS(=O)(=O)CC)C3)C2)cn2c(C)ncc12)C(C)C (stereo partly shown) [Example 102] |
| 11 | CCN(C(=O)c1cc(F)ccc1-c1cc(C2CN(C(C[C@@H]3CNCCO3)C(C)C)C2)cn2c(C)ncc12)C(C)C (stereo partly drawn) [Example 462, N-ethyl-5-fluoro-2-[3-methyl-6-(1-{3-methyl-1-[(2R)-morpholin-2-yl]butan-2-yl}azacyclobutan-3-yl)imidazo[1,5-a]pyridin-8-yl]-N-(isopropyl)benzamide] |
| 4 | Cc1nc(F)c2c(-c3ccc(F)cc3C(=O)N3CCOC[C@H]3C)cc(C3CN([C@H](CN4CCNCC4)C(C)C)C3)cn12 [Example 367-2, (3R)-4-[5-fluoro-2-(1-fluoro-3-methyl-6-{1-[(2S)-3-methyl-1-(piperazin-1-yl)butan-2-yl]azacyclobutan-3-yl}imidazo[1,5-a]pyridin-8-yl)benzoyl]-3-methylmorpholine] |
| 25 | CCN(C(=O)c1cc(F)ccc1-c1cc(C2CN(C(CCC3(O)COC3)C(C)C)C2)cn2c(C)ncc12)C(C)C (stereo not shown) [Example 447, N-ethyl-5-fluoro-2-(6-{1-[1-(3-hydroxyloxacyclobutan-3-yl)-4-methylpentan-3-yl]azacyclobut-3-yl}-3-methylimidazo[1,5-a]pyridin-8-yl)-N-(isopropyl)benzamide] |
| 7 | CCN(C(=O)c1cc(F)ccc1-c1cc(C2CN(C(C)C3CCN(C(C)=O)CC3)C2)cn2c(C)ncc12)C(C)C (stereo not shown) [Example 281] |
| 2.1 | CCN(C(=O)c1cc(F)ccc1-c1cc(C2CN([C@H](CCCN3CC4(COC4)C3)C(C)C)C2)cn2c(C)ncc12)C(C)C [Example 388] |
| 95.5 | CCN(C(=O)c1cc(F)ccc1-c1cc(C2CCN(C[C@H]3CC[C@H](NC(C)=O)CC3)C2)cn2cncc12)C(C)C (stereo partly shown) [Example 45] |
| 52 | CCN(C(=O)c1cc(F)ccc1-c1cc(N2CCN(C(=O)[C@@H]3Cc4ccccc4CN3)CC2)cn2c(C)nc(Cl)c12)C(C)C [Example 116] |
| 30 | Cc1nc(F)c2c(-c3ccc(F)cc3C(=O)N(CC(F)F)C(C)C)cc(C3CN(C(=O)[C@H]4NCC[C@@H]4C)C3)cn12 [Example 156] |
| 48 | CCN(C(=O)c1cc(F)ccc1-c1cc(C2CN([C@@H](CCCN3CCN(C(C)=O)CC3)C(C)C)C2)cn2c(C)nc(F)c12)C(C)C [Example 313] |
| 19.5 | CCC(C1CCN(C(C)=O)CC1)N1CC(c2cc(-c3ccc(F)cc3C(=O)N3CCOC[C@H]3C)c3c(F)nc(C)n3c2)C1 (stereo partly drawn) [Example 280, 1-(4-{1-[3-(1-fluoro-8-{4-fluoro-2-[(3R)-3-methylmorpholin-4-carbonyl]phenyl}-3-methylimidazo[1,5-a]pyridin-6-yl)azacyclobutan-1-yl]propyl}piperidin-1-yl)ethan-1-one] |
| 30 | CC(=O)N1CCN(CCC[C@H](C(C)C)N2CC(c3cc(-c4ccc(F)cc4C(=O)N4CCOC[C@H]4C)c4c(F)nc(C)n4c3)C2)C2(CC2)C1 [Example 334] |
| 26 | Cc1nc(F)c2c(-c3ccc(F)cc3C(=O)N3CCOC[C@H]3C)cc(C3CN([C@H](CCCN4CCOCC4)C(C)C)C3)cn12 [Example 199-1, (3R)-4-[5-fluoro-2-(1-fluoro-3-methyl-6-{1-[(3R)-2-methyl-6-(morpholin-4-yl)hexan-3-yl]azacyclobutan-3-yl}imidazo[1,5-a]pyridin-8-yl)benzoyl]-3-methylmorpholine] |
| 40 | Cc1ncc2c(-c3ccc(F)cc3C(=O)N(CC(F)F)C(C)C)cc(C3CN([C@@H](CCCN4CCN(CCO)CC4)C(C)C)C3)cn12 [Example 459-2, N-(2,2-difluoroethyl)-5-fluoro-2-(6-{1-[(3S)-6-[4-(2-hydroxylethyl)piperazin-1-yl]-2-methylhexan-3-yl]azacyclobutan-3-yl}-3-methyl-imidazo[1,5-a]pyridin-8-yl)-N-(isopropyl)benzamide] |

The next lines start with the compound.

| SMILES | IC50 [nM] |
| --- | --- |
| COCC(=O)N1CCC(CN2CC(c3cc(-c4ccc(F)cc4C(=O)N4CCOC[C@H]4C)c4c(F)nc(C)n4c3)C2)CC1 [Example 241, 1-(4-{[3-(1-fluoro-8-{4-fluoro-2-[(3R)-3-methylmorpholin-4-carbonyl]phenyl}-3-methylimidazo[1,5-a]pyridin-6-yl)azacyclobutan-1-yl]methyl}piperidin-1-yl)-2-methoxyethan-1-one] | 31.5 |
| Cc1nc(F)c2c(-c3ccc(F)cc3C(=O)N3CCOC[C@H]3C)cc(C3CN(C[C@H]4CC[C@@H](c5cnn(C)c5)CC4)C3)cn12 [Example 276-1, (3R)-4-{5-fluoro-2-[1-fluoro-3-methyl-6-(1-{[(1s,4s)-4-(1-methyl-1H-pyrazol-4-yl)cyclohexyl]methyl}azacyclobutan-3-yl)imidazo[1,5-a]pyridin-8yl]benzoyl}-3-methylmorpholine] | 15 |
| Cc1nc(F)c2c(-c3ccc(F)cc3C(=O)N3CCOC[C@H]3C)cc(C3CN(CC4CCOC4)C3)cn12 (stereo partly shown) [Example 240] | 53.5 |
| Cc1nc(F)c2c(-c3ccc(F)cc3C(=O)N3CCOC[C@H]3C)cc(C3CN(CC4CCN(C(=O)N(C)C)CC4)C3)cn12 [Example 246] | 73 |
| Cc1nc(F)c2c(-c3ccc(F)cc3C(=O)N3CCOC[C@H]3C)cc(C3CN([C@H](CO[C@@H]4CCN(C)C4)C(C)C)C3)cn12 [Example 298, (3R)-4-[5-fluoro-2-(1-fluoro-3-methyl-6-{1-[(2S)-3-methyl-1-{[(3R)-1-methylpyrrolidin-3-yl]oxy}butan-2-yl]azacyclobutan-3-yl}imidazo[1,5-a]pyridin-8yl)benzoyl]-3-methylmorpholine] | 14.5 |
| Cc1nc(F)c2c(-c3ccc(F)cc3C(=O)N3CCOC[C@H]3C)cc(C3CN([C@@H](C)C4CCN(C(=O)C(F)F)CC4)C3)cn12 [Example 300] | 24 |
| Cc1nc(F)c2c(-c3ccc(F)cc3C(=O)N3CCOC[C@H]3C)cc(C3CN([C@@H](C)C4CCN(C(=O)C(C)(F)F)CC4)C3)cn12 [Example 302] | 22 |
